{"source": "patent US6730683B2", "about": "“Compounds of heteroaryl substituted imidazole, their pharmaceutical compositions and uses” (SmithKline Beecham Corporation, priority 1997, dated 2004)", "key": {"[1]": {"system": "human PGHS-2 protein expression in LPS stimulated human monocytes", "assay": "Prostoglandin Endoperoxide Synthase-2 (PGHS-2) Assay", "assay_type": "cell-based", "conditions": "for LPS induced PGHS-2 protein expression (inactive in this assay): up to 10 uM; for inhibited LPS induced PGHS-2 protein expression (active in this assay): rank order potency similar to that for inhibiting cytokine production", "protocol": "The following assay describes a method for determining the inhibitory effects of compounds of Formula (I) on human PGHS-2 protein expression in LPS stimulated human monocytes.\nHuman peripheral blood monocytes were isolated from buffy coats by centrifugation through Ficoll and Percoll gradients. Cells were seeded at 2×10^6/well in 24 well plates and allowed to adhere for 1 hour in RPMI supplemented with 1% human AB serum, 20 mM L-glutamine, Penicillin-Streptomycin and 10 mM HEPES. Compounds were added at various concentrations and incubated at 37° C. for 10 minutes. LPS was added at 50 ng/well (to induce enzyme expression) and incubated overnight at 37° C. The supernatant was removed and cells washed once in cold PBS. The cells were lysed in 100 μl of cold lysis buffer(50 mM Tris/HCl pH 7.5, 150 mM NaCl, 1% NP40, 0.5% sodium deoxycholate, 0.1% SDS, 300 ug/ml DNAse, 0.1% TRITON X-100, 1 mM PMSF, 1 mM leupeptin, 1 mM pepstatin). The lysate was centrifuged (10,000×g for 10 min. at 4° C.) to remove debris and the soluble fraction was subjected to SDS PAGE. analysis (12% gel). Protein separated on the gel were transferred onto nitrocellulose membrane by electrophoretic means for 2 hours at 60 volts. The membrane was pretreated for one hour in PBS/0.1% Tween 20 with 5% non-fat dry milk. After washing 3 times in PBS/Tween buffer, the membrane was incubated with a 1:2000 dilution of a monospecific antiserum to PGHS-2 or a 1:1000 dilution of an antiserum to PGHS-1 in PBS/Tween with 1% BSA for one hour with continuous shaking. The membrane was washed 3× in PBS/Tween and then incubated with a 1:3000 dilution of horseradish peroxidase conjugated donkey antiserum to rabbit Ig (Amersham) in PBS/Tween with 1% BSA for one hour with continuous shaking. The membrane was then washed 3× in PBS/Tween and the ECL immunodetection system (Amersham) was used to detect the level of expression of prostaglandin endoperoxide synthases-2."}, "[2]": {"system": "pro-inflammatory proteins including, IL-6, IL-8, GM-CSF and COX-2", "conditions": "cited from earlier work"}}, "data": [{"smiles": "O=C1CCN(c2ccccc2)N1", "note": "[phenidone]", "values": [{"measurement": "LPS induced PGHS-2 protein expression (inactive in this assay)", "setting": "[1]", "value": "inactive"}]}, {"smiles": "C[S+]([O-])c1ccc(-c2nc(-c3ccncc3)c(-c3ccc(F)cc3)[nH]2)cc1", "note": "(stereo not shown) [SB 203580]", "values": [{"measurement": "synthesis of pro-inflammatory proteins including IL-6, IL-8, GM-CSF and COX-2", "setting": "[2]", "value": "decrease"}]}, {"smiles": "COc1ccc(C2CNC(=O)C2)cc1OC1CCCC1", "note": "(stereo not shown) [Rolipram]", "values": [{"measurement": "LPS induced PGHS-2 protein expression (inactive in this assay)", "setting": "[1]", "value": "inactive"}]}, {"smiles": "Fc1ccc(-c2nc3n(c2-c2ccncc2)CCS3)cc1", "note": "[SK&F 86002]", "values": [{"measurement": "synthesis of pro-inflammatory proteins including IL-6, IL-8, GM-CSF and COX-2", "setting": "[2]", "value": "decrease"}]}, {"smiles": "C[S+]([O-])c1ccc(-c2nc3n(c2-c2ccncc2)CCC3)cc1", "note": "(stereo not shown) [2-(4-Methylsulfinylphenyl)-3-(4-pyridyl)-6,7-dihydro-(5H)-pyrrolo[1,2-a]imidazole]", "values": [{"measurement": "LPS induced PGHS-2 protein expression (inactive in this assay)", "setting": "[1]", "value": "inactive"}]}, {"smiles": "C[C@@H]1C[C@H]2[C@@H]3CCC4=CC(=O)C=C[C@]4(C)[C@@]3(F)[C@@H](O)C[C@]2(C)[C@@]1(O)C(=O)CO", "note": "[Dexamethasone]", "values": [{"measurement": "inhibited LPS induced PGHS-2 protein expression (active in this assay)", "setting": "[1]", "value": "active"}]}, {"smiles": "Fc1ccc(-c2nc3n(c2-c2ccncc2)CCS3)cc1", "note": "[6-(4-Fluoro-phenyl)-2,3-dihydro-5-(4-pyridinyl)imidazo[2,1-b]thiazole]", "values": [{"measurement": "inhibited LPS induced PGHS-2 protein expression (active in this assay)", "setting": "[1]", "value": "active"}]}]}
